Usually melting point stands for the temperature of the solid-liquid transition.

Structures are written as SMILES.

The compound `N#CN1C(=O)c2ccccc2C1=O` showed a melting point of 189 to 191 °C. The value for `C[N+]([O-])(c1cnccc1[N+](=O)[O-])n1cccc1` (centres undefined) was 135 to 140 °C. The value for `N#CC=Cc1cccc(Br)c1` was 62 °C; that for `CCCn1c(=O)c2c(NC)n[nH]c2n(Cc2ccc(F)cc2)c1=O` was 262 to 265 °C; that for `CN1C(=O)C(C(=O)Nc2ccc(Oc3ccc(C(F)(F)F)cn3)cc2)C(=O)N(C)C1=O` was 180 to 181 °C. To `Cc1c(Cc2cc(=O)n(-c3cccc(C(F)(F)F)c3)[nH]2)c2cc(Cl)ccc2n1C(=O)c1ccc(Cl)cc1` belongs 81 to 83 °C; to `Oc1ccc2[nH]cc(CCN3CCC(O)(c4ccccc4)CC3)c2c1`, 150 °C; to `O=C(CNS(=O)(=O)c1ccc2ccccc2c1)NCCNC(=O)C1CCN(c2ccncc2)CC1`, 107 to 109 °C.

With `CNC(=O)c1ccc(F)c2c1CC(N(CCc1c[nH]c3ccc(F)cc13)C1CCC1)CO2` (centres undefined), the melting point was 131 °C.

As to `COC(=O)C1CCc2c([nH]c3ccc(Cl)cc23)C1` (centres undefined), the melting point was 175 to 176 °C. To `C=C(C)C(=O)Nc1cc(C(C)(C)C)c(O)c(C(C)(C)C)c1` belongs 222 to 225 °C; to `CCCC(=O)c1cc2ccccc2cc1C(=O)O`, 109 °C; to `Fc1cc(C(F)(F)F)ccc1/C=C/c1nc(COc2ccc(-c3nc(Cn4ccnc4)co3)cc2)co1`, 150 to 153 °C. To `CCOC(=O)c1ccc(CBr)cc1OC` belongs 70 to 71 °C; to `COc1cc2c(cc1O)CCN(Cc1cc(F)cc(F)c1)C2`, 110 to 111 °C; to `CCCC12CCC3=C(CCc4cc(OC)ccc43)C1CCC21OCCO1` (centres undefined), 119 to 120 °C. To `Cc1ccc(Cl)cc1N1C(=O)CON(C)C1=S` belongs 100 to 102 °C; to `O=C(c1ccc(Cl)cc1)c1cc(CBr)ccc1Cl`, 81 to 83 °C.

`COc1ccccc1N1CCN(CCCNC(=O)c2cccc3c(=O)c(O)c(-c4ccccc4)oc23)CC1` yielded a melting point of 196 to 199 °C. In the case of `c1ccc(-c2ccc3c4c([nH]c3c2)CCNCC4)cc1`, the melting point fell in the range of 220 to 222 °C. For `CCCCCC(=O)c1c(CBr)n(C(=O)OC)c(=O)n1C(=O)OC`, the melting point is 71 to 73 °C. The value for `Cn1c(=O)c2c(Oc3cccc(Cl)c3)cccc2n2cnc(-c3noc(C4CC4)n3)c12` was 201 to 203 °C. To `CCCCOC(Cl)C(=O)NCC1OC(C)C(C)O1` (centres undefined) belongs 28 °C.

`OCc1ccc(-c2cccc(C(F)(F)F)c2)o1` yielded a melting point of 45 °C. For the compound `COc1ccc(Oc2ccc(C(C)=C3SCCCS3=O)cc2)cc1` (centres undefined), the melting point was in the range of 136 to 138 °C.

With `CC1(c2ccc(Br)cc2)C(=O)Nc2cc(Cl)cc(Cl)c2C1=O` (centres undefined), the melting point was in the range of 237 to 238 °C.

With `Fc1c(Cl)cccc1/C=C/c1noc(C(Cl)(Cl)Cl)n1`, the melting point was 37 to 38 °C.

The compound `CCC(=O)Nc1ccc(N)c(=O)cc1` registered a melting point of 203 to 205 °C. `CCOC(=O)CNC(=O)CCCOc1ccc2nc3[nH]c(=O)[nH]c3cc2c1` showed a melting point of 274 to 276 °C.

Consider `N#Cc1ccccc1OC[C@H]1CO1`, for which the melting point is 84 to 86 °C.

Turning to `CCOC(=O)[C@H]1CCC(=O)[C@@H](n2nc(-c3c(-c4ccccc4)nn4ccccc34)ccc2=O)C1` (relative stereo), the melting point was 160 to 162 °C. As to `CCOC(=O)C(=O)Nc1ccc(C#N)c2ccccc12`, the melting point came out at 164 °C.

For the compound `O=C1c2ccccc2C(=O)N1C/C=C(\F)COc1ccc(Cl)cc1Cl`, the melting point was in the range of 115 to 116 °C. To `Nc1ccc(S(=O)(=O)c2cc(-c3cccc(Cl)c3)nc(N3CCCC3)c2)cc1` belongs 260 to 261 °C; to `OCCCc1cnoc1-c1ccc(OC(F)(F)F)cc1`, 50 to 51 °C; to `COc1ccc(CCNCC(O)C(=O)O)cc1OC` (centres undefined), 188 °C. To `CN1CCN(c2cccc(-c3cnn4c(N)c(Cc5ccccc5)cnc34)c2)CC1` belongs 72 to 75 °C; to `CC(=O)Nc1cc(C(=O)c2ccccc2)ccc1[N+](=O)[O-]`, 97.8 °C; to `CSc1cc(C)nc(SC)c1NC(=O)CCCCCSc1nc2ccccc2o1`, 120 to 121 °C. To `N#Cc1ccc(OCc2cccnc2)cc1OC(CCC(=O)O)c1cccc2c1OCO2` (racemic) belongs 181 to 183 °C; to `COc1ccc(C(=O)Nc2ccccc2)cc1NC(=S)Nc1ccc(Cl)cc1`, 179 to 180 °C. In turn, `CN(C)C=Nc1n[nH]c2ncnc(Nc3cccc(Cl)c3)c12` yielded a melting point of 243 to 245 °C. With `Fc1ccc(-c2nccc3c(CCl)cccc23)cc1`, the melting point lay within 110 to 112 °C.

The compound `COc1ccc(N(C)C(=O)CN(C(=O)CN2C(=O)c3ccccc3C2=O)c2ccccc2)cc1` registered a melting point of 162 °C. To `CC1N(C(=O)c2ccc(OCC(F)(F)C(F)F)cc2)CC(=O)OC1(Cn1cncn1)c1ccc(Cl)cc1Cl` (centres undefined) belongs 88 to 94 °C.

For `CCOc1nc(F)cc2nc(SSc3nc4cc(F)nc(OCC)n4n3)nn12`, the melting point was 215 to 216 °C. The value for `CCCCCCCCCCc1c(C(=O)O)sc2c1sc1c(CCCCCCCCCC)c(C(=O)O)sc12` was 280 °C; that for `CC(C)CC1(CC(=O)NOCc2ccccc2)CC(=O)N(CCc2ccccc2)C1=O` (centres undefined) was 115 to 117 °C. To `Cc1c(C)c2c(c(C3CC(=O)C=C(O)C3)c1C)OCC2` (centres undefined) belongs 264 °C; to `Clc1ccc2nc(-c3cccs3)c(-c3ccncc3)n2n1`, 208 to 210 °C; to `O=C1CC(=O)CC(c2ccc(Cl)cc2Cl)C1`, 192 to 196 °C. The value for `Cn1c(CCN2CCN(c3ccc(Cl)cc3)CC2)nc2ccc3ccccc3c21` was 213 to 215 °C. Turning to `Cc1ccc(S(=O)(=O)n2cc3c(c2)SC(=C2SC(SCCc4ccc([N+](=O)[O-])cc4)=C(SCCc4ccc([N+](=O)[O-])cc4)S2)S3)cc1`, the melting point was in the range of 143 to 144 °C.

In turn, `COc1cc(OCc2cccnc2)ccc1/C=C/c1cc(/C=C/c2ccc3[nH]ccc3c2)n[nH]1` displayed a melting point of 127 to 135 °C. The value for `CC1(c2ccccc2)OC(C=Cc2ccc(C#N)cc2)=CC1=O` (centres undefined) was 187 to 188 °C. The value for `CC(NC(=O)C(F)c1cc(F)cc(F)c1)C(=O)NC1N=C(c2ccccc2)c2ccccc2N(C)C1=O` (centres undefined) was 119 to 120 °C; that for `Cc1[nH]c(=O)c(C#N)cc1C(=O)CBr` was 212 to 214 °C.

`CC(=O)N1CCc2ccccc2C1Cc1ccccc1N` (centres undefined) came in with a melting point of 142 to 148 °C. In turn, `OC1CSC(Oc2cccc(-c3ccnc(Cl)c3)c2)C(O)C1O` (centres undefined) showed a melting point of 207 °C. The compound `O=C(Cc1ccc2c(c1)Cc1c-2[nH]c(=O)c2nccn12)NCc1ccccc1` registered a melting point above 260 °C. As to `Cc1cccc(Nc2nc(-c3cccc(C#N)c3)c(-n3cncn3)s2)n1`, the melting point was in the range of 236 to 237 °C. To `O=C(NCCCCC(NS(=O)(=O)c1ccc2oc3ccccc3c2c1)C(=O)O)OCc1ccccc1` (centres undefined) belongs 133 to 135 °C; to `COc1ccc(N2CCN(c3c(C)c(C)c4c(c3C)CC(C)(C)O4)CC2)cc1C`, 137 to 141 °C. The value for `CN(c1ccc(O)cc1)c1cc2ccc(F)cc2c(O)n1` was 249 °C; that for `CCCc1c(C(C)C)nc(C(C)C)c(C(C)O)c1-c1ccc(F)cc1O` (centres undefined) was 152 to 153 °C; that for `CC1c2ccccc2COc2ccc(C(=O)O)cc21` (centres undefined) was 224 to 226 °C. The value for `Cc1ccc(NC(=O)Cc2ccccc2)cc1` was 119 to 120 °C; that for `CCOC(=O)N[C@@H]1CC=C[C@@H]2CNC[C@H]21` (racemic) was 120 to 122 °C; that for `O=C(O)COc1cccc(-c2ccc(Cl)c(C(=O)NCC34CC5CC(CC(C5)C3)C4)c2)c1` was 99 to 101 °C. The compound `CCOC(=O)Cc1c(C)n(-c2ncnc3cc(Cl)ccc23)c2ccc(OC)cc12` showed a melting point of 103 to 105 °C. `CC(C)(C)OC(=O)[C@H](Cc1ccccc1)NC(=O)CNC1Cc2ccccc2C1`: the melting point fell in the range of 117 to 120 °C. For `COc1ccc(NC(=O)c2ccc(N)cc2NC(=O)c2ccc(C(C)(C)C)cc2)cc1`, the melting point was 137 to 140 °C.

With `COC(=O)c1ccc(OCCCC2Cc3c(c(OC)c(OC)c(OC)c3OC)C2)cc1`, the melting point was 70 to 72 °C.

With `CSCCNC(=O)c1cccc(-c2cccc3c(C)c(Cc4cccc(C(F)(F)F)c4)oc23)c1`, the melting point is 138 to 139 °C. The value for `CSCC(=O)C(Cc1cccc2ccccc12)NC(=O)C(CC(C)C)NC(=O)OCc1ccccc1` (centres undefined) was 77 to 80 °C.

In the case of `Cn1c2ccc(F)cc2c(=O)n2nc(C(=O)O)cc12`, the melting point amounted to 295 °C. With `N#Cc1nn(-c2c(Cl)cc(C(F)(F)F)cc2Cl)c(N)c1C(=O)CBr`, the melting point was 190 to 192 °C. The value for `CCC1(CO)COC2(CC(c3ccccc3)SC(c3ccccc3)C2)OC1` (centres undefined) was 128 °C; that for `O=C1OC(=O)c2cc3ccc([N+](=O)[O-])cc3c3cccc1c23` was 290 °C; that for `O=C1N[C@H](C(=O)NCCO)CS1` was 116 to 118 °C. The value for `O=C1Cc2cc(NC(=O)c3ccccc3[N+](=O)[O-])ccc2N1` was 265 °C; that for `O=C(N[C@H](CC1CCCCC1)CN1CCN(c2nccc3ccccc23)CC1)C1CCCCC1` was 155 to 159 °C; that for `Cc1oc(-c2cccs2)nc1CC#N` was 185 °C. The value for `COc1cc(Oc2cccc(C(F)(F)F)c2)nc(C(=S)Nc2ccccc2)c1` was 126 to 128 °C; that for `COc1ccc(-c2nc(C(C)=O)c[nH]2)cc1` was 248 to 250 °C.

In turn, `Nc1ccnc(N)c1I` gave a melting point of 140 °C. The value for `N#Cc1nn(-c2c(Cl)cc(SC(F)(F)F)cc2Cl)c(N)c1I` was 172 to 174 °C; that for `COc1ccc(C(c2ccc(OC)c(OCc3ccccc3)c2)n2cncn2)cc1OCc1ccccc1` was 96 to 99 °C. `CC(=O)NCCn1cccc1` came in with a melting point of 59 to 60 °C.

(Values after a melting point compilation (Tetko et al.; mined from patent text by program, amines drawn as free bases though some values may be those of a salt).)
